# Active and inactive are the calls of the source. The rule behind the calls is not given here.
# Target: not listed separately
# Test: (§1) Inhibition of human PDE2 using FAM-labeled cAMP as substrate after 60 mins in presence of cGMP by florescence polarization assay
row,Compound,Ki
1,CC[C@@H](NC(=O)c1cc(=O)[nH]c(N(C)C)n1)c1ccc(SC(F)(F)F)cc1,0.69 to 5.05 nM
2,C[C@@H](NC(=O)c1cc(=O)[nH]c(N(C)C)n1)c1ccc(SC(F)(F)F)cc1,0.32 to 0.82 nM
3,C[C@@H](NC(=O)c1cc(=O)[nH]c(N(C)C)n1)c1ccc(OC(F)(F)F)c(Cl)c1,1.6 nM
4,CN(C)c1nc(C(=O)NC2(c3ccc(C(F)(F)F)c(F)c3)CC2)cc(=O)[nH]1,0.9 to 0.96 nM

# Results, then the molecule that gave them:
row,Ki,Compound
1,0.12 nM,CN(C)c1nc(C(=O)N[C@@H](c2ccc(OC(F)(F)F)c(F)c2)C(C)(C)O)cc(=O)[nH]1
2,0.37 to 5.1 nM,CC(C)[C@@H](NC(=O)c1cc(=O)[nH]c(N(C)C)n1)c1ccc(SC(F)(F)F)cc1

# Species on record: Homo sapiens
# Test: as §1
row,inhibition,Compound
1,Active,COc1ccc(Cc2nc(O)c3c(C)nc([C@@H](CCCc4ccccc4)[C@@H](C)O)n3n2)cc1OC

# From ChEMBL document CHEMBL3868638, “Potential Treatment of Cognitive Impairment in Schizophrenia by Phosphodiesterase 2 (PDE2) Inhibitors” (ACS Med Chem Lett, 2017)
